pEC50: −log10 of the molar value.
Key:
[1] = test system: Human immunodeficiency virus 1; test: Antiviral activity against 100 TCID50 HIV1 infected in human TZM-b1 cells assessed as inhibition of viral replication by pseudovirus based assay; format: functional, organism-based; settings: for EC50: tzm-b1; for pEC50: Human immunodeficiency virus 1, TZM-b1, read-out: EC50
Mus musculus [2] = test: Toxicity in ICR mouse assessed as body weight at 4640 mg/kg, ig after 1 day administered as single dose (reference value: 21.1+/-0.9); format: organism-based; design: dose 4640 mg/kg, route intragastric; settings: in vivo, po, 24 h
Mus musculus [3] = test: Toxicity in ICR mouse assessed as body weight at 4640 mg/kg, ig after 4 days administered as single dose (reference value: 21.1+/-0.9); format: organism-based; design: dose 4640 mg/kg, route intragastric; settings: in vivo, po, 96 h
Mus musculus [4] = test: Toxicity in ICR mouse assessed as mortality at 2150 mg/kg, ig after 11 days administered as single dose; format: organism-based; design: dose 2150 mg/kg, route intragastric; settings: in vivo, po, 264 h
Mus musculus [5] = test: Toxicity in ICR mouse assessed as mortality at 4640 mg/kg, ig after 11 days administered as single dose; format: organism-based; design: dose 4640 mg/kg, route intragastric; settings: in vivo, po, 264 h
[6] = Oral bioavailability in Wistar rat at 50 mg/kg; format: ADME, organism-based; settings: in vivo
Rattus norvegicus [7] = test: AUC in Wistar rat at 5 mg/kg, iv; format: ADME, organism-based, Plasma; design: dose 5 mg/kg, route intravenous; settings: in vivo
Mus musculus [8] = test: Toxicity in ICR mouse assessed as mortality at 4640 mg/kg, ig after 14 days administered as single dose; format: organism-based; design: dose 4640 mg/kg, route intragastric; settings: in vivo, po, 336 h
[9] = Half life in Wistar rat at 50 mg/kg, po; format: ADME, organism-based; design: dose 50 mg/kg, route oral; settings: in vivo
Mus musculus [10] = test: Toxicity in ICR mouse assessed as body weight at 2150 mg/kg, ig after 4 days administered as single dose (reference value: 20.9+/-0.9); format: organism-based; design: dose 2150 mg/kg, route intragastric; settings: in vivo, po, 96 h
[11] = test system: Human immunodeficiency virus 1; test: Antiviral activity against HIV1 PNL4-3; format: functional, organism-based; settings: Human immunodeficiency virus 1, PNL4-3
Mus musculus [12] = test: Toxicity in ICR mouse assessed as mortality at 1000 mg/kg, ig after 4 days administered as single dose; format: organism-based; design: dose 1000 mg/kg, route intragastric; settings: in vivo, po, 96 h
Mus musculus [13] = test: Toxicity in ICR mouse assessed as mortality at 2150 mg/kg, ig after 1 day administered as single dose; format: organism-based; design: dose 2150 mg/kg, route intragastric; settings: in vivo, po, 24 h
[14] = Half life in Wistar rat at 5 mg/kg, iv; format: ADME, organism-based; design: dose 5 mg/kg, route intravenous; settings: in vivo
Mus musculus [15] = test: Toxicity in ICR mouse assessed as mortality at 2150 mg/kg, ig after 7 days administered as single dose; format: organism-based; design: dose 2150 mg/kg, route intragastric; settings: in vivo, po, 168 h
[16] = Mean residence time in Wistar rat at 50 mg/kg, po; format: ADME, organism-based; design: dose 50 mg/kg, route oral; settings: in vivo
Mus musculus [17] = test: Toxicity in ICR mouse assessed as mortality at 2150 mg/kg, ig after 4 days administered as single dose; format: organism-based; design: dose 2150 mg/kg, route intragastric; settings: in vivo, po, 96 h
[18] = Cmax in Wistar rat at 5 mg/kg, iv; format: ADME, organism-based; design: dose 5 mg/kg, route intravenous; settings: in vivo
[19] = Tmax in Wistar rat at 50 mg/kg, po; format: ADME, organism-based; design: dose 50 mg/kg, route oral; settings: in vivo
[20] = Selectivity index, ratio of IC50 for African green monkey Vero cells to EC50 for HIV1; format: toxicity, cell-based; settings: read-out: Selectivity Index
[21] = test system: Human immunodeficiency virus 1; test: Antiviral activity against HIV1 with reverse transcriptase […] mutation; format: functional, organism-based
[22] = Mean residence time in Wistar rat at 5 mg/kg, iv; format: ADME, organism-based; design: dose 5 mg/kg, route intravenous; settings: in vivo
[23] = test system: Human immunodeficiency virus 1; test: Antiviral activity against HIV1 with reverse transcriptase Y181L mutation; format: functional, organism-based
Mus musculus [24] = test: Toxicity in ICR mouse assessed as body weight at 1000 mg/kg, ig after 7 days administered as single dose (reference value: 21.2+/-0.8); format: organism-based; design: dose 1000 mg/kg, route intragastric; settings: in vivo, po, 168 h
Mus musculus [25] = test: Toxicity in ICR mouse assessed as body weight at 4640 mg/kg, ig after 7 days administered as single dose (reference value: 21.1+/-0.9); format: organism-based; design: dose 4640 mg/kg, route intragastric; settings: in vivo, po, 168 h
Mus musculus [26] = test: Toxicity in ICR mouse assessed as mortality at 4640 mg/kg, ig after 7 days administered as single dose; format: organism-based; design: dose 4640 mg/kg, route intragastric; settings: in vivo, po, 168 h
Mus musculus [27] = test: Toxicity in ICR mouse assessed as mortality at 1000 mg/kg, ig after 1 day administered as single dose; format: organism-based; design: dose 1000 mg/kg, route intragastric; settings: in vivo, po, 24 h
[28] = test system: Human immunodeficiency virus 1; test: Antiviral activity against HIV1 with reverse transcriptase K103N mutation; format: functional, organism-based
Mus musculus [29] = test: Toxicity in ICR mouse assessed as mortality at 1000 mg/kg, ig after 11 days administered as single dose; format: organism-based; design: dose 1000 mg/kg, route intragastric; settings: in vivo, po, 264 h
Mus musculus [30] = test: Toxicity in ICR mouse assessed as mortality at 1000 mg/kg, ig after 7 days administered as single dose; format: organism-based; design: dose 1000 mg/kg, route intragastric; settings: in vivo, po, 168 h
Mus musculus [31] = test: Toxicity in ICR mouse assessed as mortality at 1000 mg/kg, ig after 14 days administered as single dose; format: organism-based; design: dose 1000 mg/kg, route intragastric; settings: in vivo, po, 336 h
Mus musculus [32] = test: Toxicity in ICR mouse assessed as body weight at 1000 mg/kg, ig after 1 day administered as single dose (reference value: 21.2+/-0.8); format: organism-based; design: dose 1000 mg/kg, route intragastric; settings: in vivo, po, 24 h
[33] = Toxicity in African green monkey Vero cells; format: cell-based; settings: chlorocebus sabaeus
Mus musculus [34] = test: Toxicity in ICR mouse assessed as body weight at 2150 mg/kg, ig after 7 days administered as single dose (reference value: 20.9+/-0.9); format: organism-based; design: dose 2150 mg/kg, route intragastric; settings: in vivo, po, 168 h
[35] = test system: Human immunodeficiency virus 1; test: Antiviral activity against HIV1 with reverse transcriptase Y181C mutation; format: functional, organism-based
[36] = Cmax in Wistar rat at 50 mg/kg, po; format: ADME, organism-based; design: dose 50 mg/kg, route oral; settings: in vivo
[37] = test system: Human immunodeficiency virus 1; test: Antiviral activity against HIV1 with reverse transcriptase G190A mutation; format: functional, organism-based
Mus musculus [38] = test: Toxicity in ICR mouse assessed as mortality at 4640 mg/kg, ig after 1 day administered as single dose; format: organism-based; design: dose 4640 mg/kg, route intragastric; settings: in vivo, po, 24 h
Mus musculus [39] = test: Toxicity in ICR mouse assessed as mortality at 4640 mg/kg, ig after 4 days administered as single dose; format: organism-based; design: dose 4640 mg/kg, route intragastric; settings: in vivo, po, 96 h
Mus musculus [40] = test: Toxicity in ICR mouse assessed as body weight at 1000 mg/kg, ig after 4 days administered as single dose (reference value: 21.2+/-0.8); format: organism-based; design: dose 1000 mg/kg, route intragastric; settings: in vivo, po, 96 h
[41] = Tmax in Wistar rat at 5 mg/kg, iv; format: ADME, organism-based; design: dose 5 mg/kg, route intravenous; settings: in vivo
Mus musculus [42] = test: Toxicity in ICR mouse assessed as body weight at 2150 mg/kg, ig after 1 day administered as single dose (reference value: 20.9+/-0.9); format: organism-based; design: dose 2150 mg/kg, route intragastric; settings: in vivo, po, 24 h
Rattus norvegicus [43] = test: AUC in Wistar rat at 50 mg/kg, po; format: ADME, organism-based, Plasma; design: dose 50 mg/kg, route oral; settings: in vivo
Mus musculus [44] = test: Toxicity in ICR mouse assessed as mortality at 2150 mg/kg, ig after 14 days administered as single dose; format: organism-based; design: dose 2150 mg/kg, route intragastric; settings: in vivo, po, 336 h
[45] = Toxicity in human TZM-b1 cells; format: cell-based

CCCc1cc(=O)oc2c3c(c4c(c12)OC(C)(C)C=C4)OC(CNS(=O)(=O)c1ccc(OC)cc1)CC3=O (stereo unspecified)
EC50 [1]: Not Active

CCCc1cc(=O)oc2c3c(c4c(c12)OC(C)(C)C=C4)OC(CN(C)C)CC3=O (stereo unspecified)
EC50 [1]: Not Active

CCCc1cc(=O)oc2c3c(c4c(c12)OC(C)(C)C=C4)OC(CCl)CC3=O (stereo unspecified)
Activity (Mus musculus [2]): 23.2 g
Activity (Mus musculus [3]): 27.5 g
Activity (Mus musculus [4]): Non-toxic
Activity (Mus musculus [5]): Non-toxic
bioavailability [6]: 32.7%
AUC (Rattus norvegicus [7]): 1.5 ug/hr.ml
Activity (Mus musculus [8]): Non-toxic
half-life [9]: 3.8 h
Activity (Mus musculus [10]): 28 g
pEC50 [11]: 8.13
Activity (Mus musculus [12]): Non-toxic
Activity (Mus musculus [13]): Non-toxic
half-life [14]: 1.9 h
Activity (Mus musculus [15]): Non-toxic
MRT [16]: 9.2 h
Activity (Mus musculus [17]): Non-toxic
Cmax [18]: 0.93 µg/mL
Tmax [19]: 8 h
selectivity ratio [20]: 1420
pEC50 [1]: 8.13
pEC50 [21]: 6.99
MRT [22]: 1.7 h
pEC50 [23]: 5.21
Activity (Mus musculus [24]): 31.1 g
Activity (Mus musculus [25]): 29.9 g
Activity (Mus musculus [26]): Non-toxic
Activity (Mus musculus [27]): Non-toxic
pEC50 [28]: 6.50
Activity (Mus musculus [29]): Non-toxic
Activity (Mus musculus [30]): Non-toxic
Activity (Mus musculus [31]): Non-toxic
Activity (Mus musculus [32]): 23 g
CC50 [33]: 10.5 µM
Activity (Mus musculus [34]): 31.4 g
pEC50 [35]: 9.34
Cmax [36]: 0.34 µg/mL
pEC50 [37]: 7.36
Activity (Mus musculus [38]): Non-toxic
Activity (Mus musculus [39]): Non-toxic
Activity (Mus musculus [40]): 28.5 g
Tmax [41]: 1.8 min
Activity (Mus musculus [42]): 23 g
AUC (Rattus norvegicus [43]): 4.7 ug/hr.ml
Activity (Mus musculus [44]): Non-toxic

CCCc1cc(=O)oc2c3c(c4c(c12)OC(C)(C)C=C4)OC(C(F)(F)F)CC3=O (stereo unspecified)
pEC50 [1]: 4.83

CCCc1cc(=O)oc2c3c(c4c(c12)OC(C)(C)C=C4)OC(CN1CCCCC1)CC3=O (stereo unspecified)
EC50 [1]: Not Active

CCCc1cc(=O)oc2c3c(c4c(c12)OC(C)(C)C=C4)O[C@H]1C[C@H]1C3=O (relative stereo) [CIS-10,11-CYCLOPROPYL-12-OXO-CALANOLIDE A]
selectivity ratio [20]: 709
pEC50 [1]: 7.85
CC50 [33]: 7.14 µM

CCCc1cc(=O)oc2c3c(c4c(c12)OC(C)(C)C=C4)OC(CN)CC3=O (stereo unspecified) [1'-AMINEMETHYL-11-DEMETHYL-12-OXO-CALANOLIDE A]
EC50 [1]: Not Active

CCCc1cc(=O)oc2c3c(c4c(c12)OC(C)(C)C=C4)OC(CN=[N+]=[N-])CC3=O (stereo unspecified) [1'-AZIDEMETHYL-11-DEMETHYL-12-OXO-CALANOLIDE A]
EC50 [1]: Not Active
Activity [45]: Toxic

CCCc1cc(=O)oc2c3c(c4c(c12)OC(C)(C)C=C4)O[C@H](C)[C@@H](C)[C@@H]3O [CALANOLIDE A]
pEC50 [11]: 7.94
selectivity ratio [20]: 16
pEC50 [1]: 7.00
pEC50 [21]: 8.66
pEC50 [23]: 5.14
pEC50 [28]: 6.33
pEC50 [35]: 4.98
pEC50 [37]: 6.80

Cc1ccnc2c1NC(=O)c1cccnc1N2C1CC1 [NEVIRAPINE]
pEC50 [11]: 7.01
selectivity ratio [20]: 3300
pEC50 [1]: 8.09
pEC50 [21]: 5.21
pEC50 [23]: 4.98
pEC50 [28]: 4.87
CC50 [33]: 27.1 µM
pEC50 [35]: 7.37
pEC50 [37]: 6.41
